Assay results: patent US20240390352A1, “PHARMACEUTICAL COMPOSITION FOR PREVENTING OR TREATING CANCER COMPRISING CARNITINE ACYLCARNITINE CARRIER INHIBITOR AND ANTITUMOR AGENT” (NEW CANCER CURE - BIO CO.,LTD., priority 2021, published 2024)

Assays:
Type in all cases: cell-based
HCT-116 cells = test: SRB assay cancer cell growth rate, HCT-116; details: relative to control (100%), 48 hours, KN510 200 μM, irinotecan 2.5 μM, 5-FU 5 μM, gemcitabine 2.5 μM, paclitaxel 10 nM, cisplatin 1 μM, alone or KN510 + anticancer drug
CAKI-1 cells = test: SRB assay cancer cell growth rate, CAKI-1; details: relative to control (100%), 48 hours, KN510 200 μM, irinotecan 2.5 μM, 5-FU 5 μM, gemcitabine 2.5 μM, paclitaxel 10 nM, cisplatin 1 μM, alone or KN510 + anticancer drug
ACHN cells = test: SRB assay cancer cell growth rate, ACHN; details: relative to control (100%), 48 hours, KN510 200 μM, irinotecan 2.5 μM, 5-FU 5 μM, gemcitabine 2.5 μM, paclitaxel 10 nM, cisplatin 1 μM, alone or KN510 + anticancer drug
UACC62 cells = test: SRB assay cancer cell growth rate, UACC62; details: relative to control (100%), 48 hours, KN510 200 μM, irinotecan 2.5 μM, 5-FU 5 μM, gemcitabine 2.5 μM, paclitaxel 10 nM, cisplatin 1 μM, alone or KN510 + anticancer drug
UACC257 cells = test: SRB assay cancer cell growth rate, UACC257; details: relative to control (100%), 48 hours, KN510 200 μM, irinotecan 2.5 μM, 5-FU 5 μM, gemcitabine 2.5 μM, paclitaxel 10 nM, cisplatin 1 μM, alone or KN510 + anticancer drug
OVCAR-8 cells = test: SRB assay cancer cell growth rate, OVCAR-8; details: relative to control (100%), 48 hours, KN510 200 μM, irinotecan 2.5 μM, 5-FU 5 μM, gemcitabine 2.5 μM, paclitaxel 10 nM, cisplatin 1 μM, alone or KN510 + anticancer drug
A549 cells = test: SRB assay cancer cell growth rate, A549; details: relative to control (100%), 48 hours, KN510 200 μM, irinotecan 2.5 μM, 5-FU 5 μM, gemcitabine 2.5 μM, paclitaxel 10 nM, cisplatin 1 μM, alone or KN510 + anticancer drug
PC-3 cells = test: SRB assay cancer cell growth rate, PC-3; details: relative to control (100%), 48 hours, KN510 200 μM, irinotecan 2.5 μM, 5-FU 5 μM, gemcitabine 2.5 μM, paclitaxel 10 nM, cisplatin 1 μM, alone or KN510 + anticancer drug
SR cells = test: SRB assay cancer cell growth rate, SR; details: relative to control (100%), 48 hours, KN510 200 μM, irinotecan 2.5 μM, 5-FU 5 μM, gemcitabine 2.5 μM, paclitaxel 10 nM, cisplatin 1 μM, alone or KN510 + anticancer drug
K562 cells = test: SRB assay cancer cell growth rate, K562; details: relative to control (100%), 48 hours, KN510 200 μM, irinotecan 2.5 μM, 5-FU 5 μM, gemcitabine 2.5 μM, paclitaxel 10 nM, cisplatin 1 μM, alone or KN510 + anticancer drug
[1] = tested on: colon cancer cell lines HCT-116 cells and COLO-205 cells; test: Synergistic effect of omeprazole and anticancer drug, colon cancer cell lines; details: anticancer drug combined with omeprazole (KN510) versus each treatment alone
[2] = tested on: renal cell carcinoma cell lines CAKI-1 and ACHN cells; test: Synergistic effect of omeprazole and anticancer drug, renal cancer cell lines; details: anticancer drug combined with omeprazole (KN510) versus each treatment alone
[3] = tested on: liver cancer cell lines SK-HEP-1 cells and Huh-7 cells; test: Synergistic effect of omeprazole and anticancer drug, liver cancer cell lines; details: anticancer drug combined with omeprazole (KN510) versus each treatment alone
[4] = tested on: glioblastoma (GBM) cell lines, U-87 MG cells and T87G cells; test: Synergistic effect of omeprazole and anticancer drug, glioblastoma cell lines; details: anticancer drug combined with omeprazole (KN510) versus each treatment alone
[5] = tested on: melanoma cell lines UACC62 cells and UACC257 cells; test: Synergistic effect of omeprazole and anticancer drug, melanoma cell lines; details: anticancer drug combined with omeprazole (KN510) versus each treatment alone
[6] = tested on: pancreatic ductal adenocarcinoma (PDAC) cell lines, MIA PaCa-2 cells and PANC-1 cells; test: Synergistic effect of omeprazole and anticancer drug, pancreatic cancer cell lines; details: anticancer drug combined with omeprazole (KN510) versus each treatment alone
[7] = tested on: MKN-28 cells and AGS cells, stomach cancer cells; test: Synergistic effect of omeprazole and anticancer drug, stomach cancer cells; details: anticancer drug combined with omeprazole (KN510) versus each treatment alone
[8] = tested on: ovarian cancer cells, OVCAR-8 cells and SK-OV-3 cells; test: Synergistic effect of omeprazole and anticancer drug, ovarian cancer cells; details: anticancer drug combined with omeprazole (KN510) versus each treatment alone
[9] = tested on: A549 and H23 lung cancer cells; test: Synergistic effect of omeprazole and anticancer drug, lung cancer cells; details: anticancer drug combined with omeprazole (KN510) versus each treatment alone
[10] = tested on: breast cancer cells, MDA-MB-231 cells and MCF-7 cells; test: Synergistic effect of omeprazole and anticancer drug, breast cancer cells; details: anticancer drug combined with omeprazole (KN510) versus each treatment alone
[11] = tested on: prostate cancer cells, PC-3 cells and DU-145 cells; test: Synergistic effect of omeprazole and anticancer drug, prostate cancer cells; details: anticancer drug combined with omeprazole (KN510) versus each treatment alone
[12] = tested on: leukemia cells, SR cells and K562 cells; test: Synergistic effect of omeprazole and anticancer drug, leukemia cells; details: anticancer drug combined with omeprazole (KN510) versus each treatment alone

SMILES | HCT-116 growth rate average (%) (HCT-116 cells) | CAKI-1 growth rate average (%) (CAKI-1 cells) | ACHN growth rate average (%) (ACHN cells) | UACC62 growth rate average (%) (UACC62 cells) | UACC257 growth rate average (%) (UACC257 cells) | OVCAR-8 growth rate average (%) (OVCAR-8 cells) | A549 growth rate average (%) (A549 cells) | PC-3 growth rate average (%) (PC-3 cells) | SR growth rate average (%) (SR cells) | K562 growth rate average (%) (K562 cells) | synergistic effect of omeprazole and an anticancer drug in combination, colon cancer [1] | synergistic effect of omeprazole and an anticancer drug in combination, renal cell carcinoma [2] | synergistic effect of omeprazole and an anticancer drug in combination, liver cancer [3] | synergistic effect of omeprazole and an anticancer drug in combination, glioblastoma (GBM) [4] | synergistic effect of omeprazole and an anticancer drug in combination, melanoma [5] | synergistic effect of omeprazole and an anticancer drug in combination, pancreatic cancer (PDAC) [6] | synergistic effect of omeprazole and an anticancer drug in combination, stomach cancer [7] | synergistic effect of omeprazole and an anticancer drug in combination, ovarian cancer [8] | synergistic effect of omeprazole and an anticancer drug in combination, lung cancer [9] | synergistic effect of omeprazole and an anticancer drug in combination, breast cancer [10] | also measured
CCc1c2c(nc3ccc(OC(=O)N4CCC(N5CCCCC5)CC4)cc13)-c1cc3c(c(=O)n1C2)COC(=O)[C@]3(O)CC [Irinotecan] | 41.85 | 44.74 | 42.20 | −35.63 | 21.87 | 4.70 | 16.54 | 33.84 | 6.26 | 46.54 | Positive effect | Positive effect | Positive effect | Positive effect | Positive effect | Positive effect | Negative effect | Negative effect | Negative effect | Positive effect | synergistic effect of omeprazole and an anticancer drug in combination, colon cancer ([1]; listed as irinotecan): significantly inhibited; synergistic effect of omeprazole and an anticancer drug in combination, renal cell carcinoma ([2]; listed as irinotecan): significantly inhibited; synergistic effect of omeprazole and an anticancer drug in combination, liver cancer ([3]; listed as irinotecan): significantly inhibited; synergistic effect of omeprazole and an anticancer drug in combination, glioblastoma (GBM) ([4]; listed as irinotecan): significantly inhibited; synergistic effect of omeprazole and an anticancer drug in combination, melanoma ([5]; listed as irinotecan): significantly inhibited; synergistic effect of omeprazole and an anticancer drug in combination, pancreatic cancer (PDAC) ([6]; listed as irinotecan): significantly inhibited; synergistic effect of omeprazole and an anticancer drug in combination, breast cancer ([10]; listed as irinotecan): significantly inhibited; synergistic effect of omeprazole and an anticancer drug in combination, prostate cancer [11]: Negative effect; synergistic effect of omeprazole and an anticancer drug in combination, leukemia [12]: Positive effect; synergistic effect of omeprazole and an anticancer drug in combination, leukemia ([12]; listed as irinotecan): significantly inhibited
CC(=O)O[C@H]1C(=O)[C@@]2(C)[C@H]([C@H](OC(=O)c3ccccc3)[C@]3(O)C[C@H](OC(=O)[C@H](O)[C@@H](NC(=O)c4ccccc4)c4ccccc4)C(C)=C1C3(C)C)[C@]1(OC(C)=O)CO[C@@H]1C[C@@H]2O [Paclitaxel] | 17.70 | 17.70 | 0.91 | 48.36 | 35.43 | 12.64 | 22.67 | 32.49 | 94.83 | 59.27 | Positive effect | Negative effect | Negative effect | Positive effect | Positive effect | Positive effect | Positive effect | Negative effect | Positive effect | Negative effect | synergistic effect of omeprazole and an anticancer drug in combination, colon cancer ([1]; listed as paclitaxel): significantly inhibited; synergistic effect of omeprazole and an anticancer drug in combination, glioblastoma (GBM) ([4]; listed as paclitaxel): significantly inhibited; synergistic effect of omeprazole and an anticancer drug in combination, melanoma ([5]; listed as paclitaxel): significantly inhibited; synergistic effect of omeprazole and an anticancer drug in combination, pancreatic cancer (PDAC) ([6]; listed as paclitaxel): significantly inhibited; synergistic effect of omeprazole and an anticancer drug in combination, stomach cancer ([7]; listed as paclitaxel): significantly inhibited; synergistic effect of omeprazole and an anticancer drug in combination, lung cancer ([9]; listed as paclitaxel): significantly inhibited; synergistic effect of omeprazole and an anticancer drug in combination, prostate cancer [11]: Negative effect; synergistic effect of omeprazole and an anticancer drug in combination, leukemia [12]: Positive effect; synergistic effect of omeprazole and an anticancer drug in combination, leukemia ([12]; listed as paclitaxel): significantly inhibited
